Read-outs that look alike come from different tables or passages of the source.
Assays:
[1] = target: anti-cortisol (17) Fab fragment; test: Initial ligand screening by native MS; type: binding, murine; settings: Fab 0.1 μM, ligand 100 nM to 10 μM
[2] = target: anti-cortisol (17) Fab fragment; settings: read-out: KD (SPR); determined in previous work ref 9; cited from earlier work
[3] = target: anti-cortisol (17) Fab fragment; test: Surface plasmon resonance; type: binding, murine; settings: read-out: KD (SPR); determined in this work
[4] = tested on: anti-cortisol (17) Fab fragment; test: Native MS direct ligand titration, KD by one-site binding fit; design: species or system murine; settings: native MS KD ratio

Structure (SMILES) | approximate KD range from initial ligand screening [1] | Kd [2] [nM] | Kd [3] [nM] | fold higher KD compared to corticosterone [4]
C[C@]12C[C@H](O)[C@H]3[C@@H](CCC4=CC(=O)CC[C@@]43C)[C@@H]1CC[C@@H]2C(=O)CO [corticosterone] | nanomolar range | 31 ± 2 | – | –
C[C@]12CCC(=O)C=C1CC[C@@H]1[C@@H]2[C@@H](O)C[C@@]2(C)[C@H]1CC[C@]2(O)C(=O)CO [cortisol] | nanomolar range | 7 ± 1 | – | –
C[C@]12CC[C@H]3[C@@H](CCC4=CC(=O)CC[C@@]43C)[C@@H]1CC[C@@H]2O [testosterone] | – | 23000 ± 4000 | – | –
C[C@]12C=CC(=O)C=C1CC[C@@H]1[C@@H]2[C@@H](O)C[C@@]2(C)[C@H]1CC[C@]2(O)C(=O)CO [prednisolone] | nanomolar range | 13 ± 1 | – | –
C[C@]12CCC(=O)C=C1CC[C@@H]1[C@@H]2CC[C@@]2(C)[C@H]1CC[C@]2(O)C(=O)CO [11-deoxycortisol] | submicromolar affinity | – | 120 | more than 4 fold
CC(=O)[C@H]1CC[C@H]2[C@@H]3CCC4=CC(=O)CC[C@]4(C)[C@H]3CC[C@]12C [progesterone] | – | 15000 ± 3000 | – | –

— paper PMC11024979 (ACS Omega, 2024)
